Earlier results, collected in patent publication US8580317B2, “Compositions and methods for treating acne” (Revance Therapeutics, Inc., priority 2005, dated 2013).

Columns and labels:
[1] = benzoyl peroxide topically applied
[2] = test system: propionibacterium acnes (P. Acnes); details: background statement

## O=C(OOC(=O)c1ccccc1)c1ccccc1 [benzoyl peroxide]
[1]
  share of the population that experiences skin allergies: about 10%
[2]
  kills P. acnes compared with other medications: better than any other medication on the market
